# According to PubChem BioAssay (NCI):
#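 Test compounds were applied to cells in 96-well plates for 48 hours at 5 doses. GI50 = concentration required for 50% inhibition of growth. Definition used: TGI = concentration required for complete inhibition of growth.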
# Assays:
# Assay in all cases: inhibition of tumour cell growth, NCI panel, 48 h
# KM12 colon = test system: KM12 colon
# SF-295 CNS = test system: SF-295 CNS
# SF-539 CNS = test system: SF-539 CNS
# TK-10 renal = test system: TK-10 renal
# RXF 393 renal = test system: RXF 393 renal
# PC-3 prostate = test system: PC-3 prostate
# SK-MEL-28 melanoma = test system: SK-MEL-28 melanoma
# HT29 colon = test system: HT29 colon
# OVCAR-4 ovarian = test system: OVCAR-4 ovarian
# ACHN renal = test system: ACHN renal
# SR leukemia = test system: SR leukemia
# HCC-2998 colon = test system: HCC-2998 colon
# 786-0 renal = test system: 786-0 renal
# UACC-257 melanoma = test system: UACC-257 melanoma
# MALME-3M melanoma = test system: MALME-3M melanoma
# SNB-19 CNS = test system: SNB-19 CNS
# CAKI-1 renal = test system: CAKI-1 renal
# MOLT-4 leukemia = test system: MOLT-4 leukemia
# OVCAR-8 ovarian = test system: OVCAR-8 ovarian
# CCRF-CEM leukemia = test system: CCRF-CEM leukemia
# LOX IMVI melanoma = test system: LOX IMVI melanoma
# EKVX NSCLC = test system: EKVX NSCLC
# UO-31 renal = test system: UO-31 renal
# MDA-MB-435 = test system: MDA-MB-435
# SK-MEL-2 melanoma = test system: SK-MEL-2 melanoma
# HCT-15 colon = test system: HCT-15 colon
# NCI-H23 lung = test system: NCI-H23 lung
# SK-OV-3 ovarian = test system: SK-OV-3 ovarian
# SN12C renal = test system: SN12C renal
# COLO 205 colon = test system: COLO 205 colon
# OVCAR-3 ovarian = test system: OVCAR-3 ovarian
# SNB-75 CNS = test system: SNB-75 CNS
# NCI-H522 lung = test system: NCI-H522 lung
# SF-268 CNS = test system: SF-268 CNS
# A498 renal = test system: A498 renal
# MDA-MB-231 breast = test system: MDA-MB-231 breast
# IGROV1 ovarian = test system: IGROV1 ovarian
# SK-MEL-5 melanoma = test system: SK-MEL-5 melanoma
# NCI/ADR-RES ovarian = test system: NCI/ADR-RES ovarian
# BT-549 breast = test system: BT-549 breast
# HCT-116 colon = test system: HCT-116 colon
# T-47D breast = test system: T-47D breast
# U251 CNS = test system: U251 CNS
# HOP-62 NSCLC = test system: HOP-62 NSCLC
# NCI-H226 lung = test system: NCI-H226 lung
# HOP-92 NSCLC = test system: HOP-92 NSCLC
# M14 melanoma = test system: M14 melanoma
# MDA-MB-468 breast = test system: MDA-MB-468 breast
# HL-60(TB) leukemia = test system: HL-60(TB) leukemia
# A549 NSCLC = test system: A549 NSCLC
# RPMI-8226 leukemia = test system: RPMI-8226 leukemia
# DU-145 prostate = test system: DU-145 prostate
# MCF7 breast = test system: MCF7 breast
# SW-620 colon = test system: SW-620 colon
# UACC-62 melanoma = test system: UACC-62 melanoma
# HS 578T breast = test system: HS 578T breast
# K-562 leukemia = test system: K-562 leukemia
# OVCAR-5 ovarian = test system: OVCAR-5 ovarian
# NCI-H460 lung = test system: NCI-H460 lung
smiles,measurement,setting,value
O=C(NO)c1ccc(CNc2nc(-c3ccccc3)c3ccccc3n2)cc1,GI50,KM12 colon,3.69 µM
same,TGI,KM12 colon,> 12.5 µM
same,GI50,SF-295 CNS,1.84 µM
same,TGI,SF-295 CNS,4.69 µM
same,GI50,SF-539 CNS,2.77 µM
same,TGI,SF-539 CNS,> 11.3 µM
same,GI50,TK-10 renal,2.12 µM
same,TGI,TK-10 renal,> 19.8 µM
same,GI50,RXF 393 renal,1.23 µM
same,TGI,RXF 393 renal,3.58 µM
same,GI50,PC-3 prostate,4.84 µM
same,TGI,PC-3 prostate,27.3 µM
same,GI50,SK-MEL-28 melanoma,2.42 µM
same,TGI,SK-MEL-28 melanoma,8.17 µM
same,GI50,HT29 colon,2.46 µM
same,TGI,HT29 colon,> 23.3 µM
same,GI50,OVCAR-4 ovarian,5.4 µM
same,TGI,OVCAR-4 ovarian,> 20.6 µM
same,GI50,ACHN renal,2.05 µM
same,TGI,ACHN renal,5.55 µM
same,GI50,SR leukemia,> 18.1 µM
same,TGI,SR leukemia,> 28 µM
same,GI50,HCC-2998 colon,1.82 µM
same,TGI,HCC-2998 colon,5.63 µM
same,GI50,786-0 renal,2.75 µM
same,TGI,786-0 renal,11.8 µM
same,GI50,UACC-257 melanoma,2.02 µM
same,TGI,UACC-257 melanoma,> 16.5 µM
same,GI50,MALME-3M melanoma,1.36 µM
same,TGI,MALME-3M melanoma,4.72 µM
same,GI50,SNB-19 CNS,2.83 µM
same,TGI,SNB-19 CNS,9.91 µM
same,GI50,CAKI-1 renal,2.5 µM
same,TGI,CAKI-1 renal,8.52 µM
same,GI50,MOLT-4 leukemia,3.01 µM
same,TGI,MOLT-4 leukemia,> 28 µM
same,GI50,OVCAR-8 ovarian,2.65 µM
same,TGI,OVCAR-8 ovarian,> 12.4 µM
same,GI50,CCRF-CEM leukemia,2.73 µM
same,TGI,CCRF-CEM leukemia,> 28 µM
same,GI50,LOX IMVI melanoma,2.08 µM
same,TGI,LOX IMVI melanoma,5.35 µM
same,GI50,EKVX NSCLC,3.59 µM
same,TGI,EKVX NSCLC,> 17 µM
same,GI50,UO-31 renal,1.99 µM
same,TGI,UO-31 renal,6.71 µM
same,GI50,MDA-MB-435,2.4 µM
same,TGI,MDA-MB-435,> 9.06 µM
same,GI50,SK-MEL-2 melanoma,1.42 µM
same,TGI,SK-MEL-2 melanoma,7.54 µM
same,GI50,HCT-15 colon,2.85 µM
same,TGI,HCT-15 colon,9.1 µM
same,GI50,NCI-H23 lung,2.24 µM
same,TGI,NCI-H23 lung,7.72 µM
same,GI50,SK-OV-3 ovarian,2.15 µM
same,TGI,SK-OV-3 ovarian,6.25 µM
same,GI50,SN12C renal,3.09 µM
same,TGI,SN12C renal,12 µM
same,GI50,COLO 205 colon,1.69 µM
same,TGI,COLO 205 colon,3.81 µM
same,GI50,OVCAR-3 ovarian,2.68 µM
same,TGI,OVCAR-3 ovarian,8.7 µM
same,GI50,SNB-75 CNS,2.36 µM
same,TGI,SNB-75 CNS,> 12 µM
same,GI50,NCI-H522 lung,1.85 µM
same,TGI,NCI-H522 lung,8.25 µM
same,GI50,SF-268 CNS,3.57 µM
same,TGI,SF-268 CNS,15.2 µM
same,GI50,A498 renal,1.68 µM
same,TGI,A498 renal,5.45 µM
same,GI50,MDA-MB-231 breast,2.44 µM
same,TGI,MDA-MB-231 breast,8.22 µM
same,GI50,IGROV1 ovarian,2.29 µM
same,TGI,IGROV1 ovarian,6.96 µM
same,GI50,SK-MEL-5 melanoma,1.62 µM
same,TGI,SK-MEL-5 melanoma,3.32 µM
same,GI50,NCI/ADR-RES ovarian,0.159 µM
same,TGI,NCI/ADR-RES ovarian,0.954 µM
same,GI50,BT-549 breast,3.99 µM
same,TGI,BT-549 breast,15.8 µM
same,GI50,HCT-116 colon,2.04 µM
same,TGI,HCT-116 colon,8.01 µM
same,GI50,T-47D breast,2.28 µM
same,TGI,T-47D breast,21.7 µM
same,GI50,U251 CNS,2.37 µM
same,TGI,U251 CNS,8.78 µM
same,GI50,HOP-62 NSCLC,2.88 µM
same,TGI,HOP-62 NSCLC,12.2 µM
same,GI50,NCI-H226 lung,2.67 µM
same,TGI,NCI-H226 lung,14.6 µM
same,GI50,HOP-92 NSCLC,1.95 µM
same,TGI,HOP-92 NSCLC,6.6 µM
same,GI50,M14 melanoma,3.2 µM
same,TGI,M14 melanoma,> 13.5 µM
same,GI50,MDA-MB-468 breast,1.49 µM
same,TGI,MDA-MB-468 breast,5.41 µM
same,GI50,HL-60(TB) leukemia,3.59 µM
same,TGI,HL-60(TB) leukemia,> 28 µM
same,GI50,A549 NSCLC,3.23 µM
same,TGI,A549 NSCLC,> 13.4 µM
same,GI50,RPMI-8226 leukemia,2.36 µM
same,TGI,RPMI-8226 leukemia,> 28 µM
same,GI50,DU-145 prostate,2.78 µM
same,TGI,DU-145 prostate,> 28 µM
same,GI50,MCF7 breast,3.22 µM
same,TGI,MCF7 breast,> 28 µM
same,GI50,SW-620 colon,2.09 µM
same,TGI,SW-620 colon,5.91 µM
same,GI50,UACC-62 melanoma,1.34 µM
same,TGI,UACC-62 melanoma,3.16 µM
same,GI50,HS 578T breast,2.47 µM
same,TGI,HS 578T breast,> 28 µM
same,GI50,K-562 leukemia,3.05 µM
same,TGI,K-562 leukemia,> 28 µM
same,GI50,OVCAR-5 ovarian,1.55 µM
same,TGI,OVCAR-5 ovarian,4.87 µM
same,GI50,NCI-H460 lung,3.04 µM
same,TGI,NCI-H460 lung,> 17.1 µM
